Laboratory results published in US20080194585A1, “Fungicidal Pyrazine Derivatives” (priority 2005, published 2008).
Marks after values point to notes of the source that are not given here.

What was measured:
fusarium graminearium = assay: Test I: wheat head scab, preventive spray on wheat seedlings
Description: (the causal agent of wheat head scab) and incubated in a saturated atmosphere at 20° C. for 72 h, and then moved to a growth chamber at 22° C. for 5 days, after which disease ratings were made.

Sclerotinia sclerotiorum = assay: Test C: cucumber white mold, preventive spray on cucumber seedlings
Botrytis cinerea = assay: Test E: tomato botrytis, preventive spray on tomato seedlings
Pythium aphanidermatum = assay: Test A: bluegrass pythium blight, preventive spray on bluegrass seedlings
[1] = system: Puccinia recondita f. sp. tritici; assay: Test K: wheat leaf rust, preventive spray on wheat seedlings
[2] = system: Colletotrichum orbiculare; assay: Test B: cucumber Colletotrichum anthracnose, preventive spray on cucumber seedlings
Phytophthora infestans = assay: whole plant or invertebrate; format: in vivo
[3] = system: Erysiphe graminis f. sp. tritici; assay: Test L: wheat powdery mildew, preventive spray on wheat seedlings
Septoria nodorum = assay: Test H: wheat glum blotch, preventive spray on wheat seedlings
Description: (the causal agent of wheat glum blotch) and incubated in a saturated atmosphere at 20° C. for 48 h, and then moved to a growth chamber at 22° C. for 5 days, after which disease ratings were made.

Plasmopara viticola = assay: Test D: grape downy mildew, spray after inoculation of grape seedlings; format: in vivo
Description: Upon removal, disease ratings were made. […] A dash (-) indicates no test results.

Septoria tritici = assay: Test J: wheat leaf blotch, preventive spray on wheat seedlings; format: in vivo
Description: A dash (-) indicates no test results.

Rhizoctonia oryzae = assay: Test G: turf brown patch, preventive spray on creeping bent grass seedlings
Description: (the causal agent of turf brown patch) and incubated in a saturated atmosphere at 27° C. for 24 h, and then moved to a growth chamber at 27° C. for 5 days, after which disease ratings were made.

[4] = 200 ppm, 100 = 100% disease control, 0 = no control
[5] = 40 ppm (marked *), 100 = 100% disease control, 0 = no control

Structure (SMILES)	Test I disease control rating (fusarium graminearium; [5])	Test C disease control rating (Sclerotinia sclerotiorum; [5])	Test E disease control rating (Botrytis cinerea; [5])	Test A disease control rating (Pythium aphanidermatum; [5])	Test K disease control rating [1, 5]	Test B disease control rating [2, 5]	Test F disease control rating (Phytophthora infestans; [5])	Test L disease control rating [3, 5]	Test H disease control rating (Septoria nodorum; [5])	Test D disease control rating (Plasmopara viticola; [5])	Test J disease control rating (Septoria tritici; [5])	Test G disease control rating (Rhizoctonia oryzae; [5])	further results
CC(CF)n1c(-c2c(F)cccc2F)c(Cl)nc(-n2cccn2)c1=O (stereo not drawn) [compound 238]	–	–	–	–	–	–	–	–	–	–	–	–	Test I disease control rating (fusarium graminearium; 40 ppm (*)): 0* %; Test C disease control rating (Sclerotinia sclerotiorum; 40 ppm (*)): 0* %; Test E disease control rating (Botrytis cinerea; 40 ppm (*)): 99* %; Test A disease control rating (Pythium aphanidermatum; 40 ppm (*)): 0* %; Test K disease control rating ([1]; 40 ppm (*)): 100* %; Test B disease control rating ([2]; 40 ppm (*)): 63* %; Test F disease control rating (Phytophthora infestans; 40 ppm (*)): 0* %; Test L disease control rating ([3]; 40 ppm (*)): 74* %; Test H disease control rating (Septoria nodorum; 40 ppm (*)): 98* %; Test D disease control rating (Plasmopara viticola; 40 ppm (*)): 0* %; Test J disease control rating (Septoria tritici; 40 ppm (*)): 96* %; Test G disease control rating (Rhizoctonia oryzae; 40 ppm (*)): 93* %
Cc1ccn(-c2nc(Br)c(-c3c(F)cccc3F)n(CC(C)C)c2=O)n1 [compound 242]	–	–	–	–	–	–	–	–	–	–	–	–	Test I disease control rating (fusarium graminearium; 40 ppm (*)): 0* %; Test C disease control rating (Sclerotinia sclerotiorum; 40 ppm (*)): 0* %; Test E disease control rating (Botrytis cinerea; 40 ppm (*)): 100* %; Test A disease control rating (Pythium aphanidermatum; 40 ppm (*)): 0* %; Test K disease control rating ([1]; 40 ppm (*)): 92* %; Test B disease control rating ([2]; 40 ppm (*)): 73* %; Test F disease control rating (Phytophthora infestans; 40 ppm (*)): 0* %; Test L disease control rating ([3]; 40 ppm (*)): 99* %; Test H disease control rating (Septoria nodorum; 40 ppm (*)): 94* %; Test D disease control rating (Plasmopara viticola; 40 ppm (*)): 0* %; Test J disease control rating (Septoria tritici; 40 ppm (*)): 100* %; Test G disease control rating (Rhizoctonia oryzae; 40 ppm (*)): 82* %
Cc1ccn(-c2nc(Cl)c(-c3cccc4c3OCO4)n(CC(C)C)c2=O)n1 [compound 255]	–	–	–	–	–	–	–	–	–	–	–	–	Test I disease control rating (fusarium graminearium; [4]): 0%; Test C disease control rating (Sclerotinia sclerotiorum; [4]): 0%; Test E disease control rating (Botrytis cinerea; [4]): 99%; Test A disease control rating (Pythium aphanidermatum; [4]): 0%; Test K disease control rating [1, 4]: 61%; Test B disease control rating [2, 4]: 0%; Test F disease control rating (Phytophthora infestans; [4]): 0%; Test L disease control rating [3, 4]: 0%; Test H disease control rating (Septoria nodorum; [4]): 0%; Test D disease control rating (Plasmopara viticola; [4]): 0%; Test J disease control rating (Septoria tritici; [4]): 71%; Test G disease control rating (Rhizoctonia oryzae; [4]): 0%
Cc1ccn(-c2nc(Cl)c(-c3ccc4c(c3)OC(F)(F)O4)n(CC(C)C)c2=O)n1 [compound 256]	–	–	–	–	–	–	–	–	–	–	–	–	Test I disease control rating (fusarium graminearium; [4]): 0%; Test C disease control rating (Sclerotinia sclerotiorum; [4]): 0%; Test E disease control rating (Botrytis cinerea; [4]): 0%; Test A disease control rating (Pythium aphanidermatum; [4]): 0%; Test K disease control rating [1, 4]: 0%; Test B disease control rating [2, 4]: 0%; Test F disease control rating (Phytophthora infestans; [4]): 0%; Test L disease control rating [3, 4]: 0%; Test H disease control rating (Septoria nodorum; [4]): 0%; Test D disease control rating (Plasmopara viticola; [4]): 0%; Test J disease control rating (Septoria tritici; [4]): 38%; Test G disease control rating (Rhizoctonia oryzae; [4]): 0%
Cc1ccn(-c2nc(Cl)c(-c3cc4c(cc3Cl)OCO4)n(CC(C)C)c2=O)n1 [compound 257]	–	–	–	–	–	–	–	–	–	–	–	–	Test I disease control rating (fusarium graminearium; [4]): 0%; Test C disease control rating (Sclerotinia sclerotiorum; [4]): 0%; Test E disease control rating (Botrytis cinerea; [4]): 99%; Test A disease control rating (Pythium aphanidermatum; [4]): 81%; Test K disease control rating [1, 4]: 74%; Test B disease control rating [2, 4]: 0%; Test F disease control rating (Phytophthora infestans; [4]): 0%; Test L disease control rating [3, 4]: 0%; Test H disease control rating (Septoria nodorum; [4]): 0%; Test D disease control rating (Plasmopara viticola; [4]): 0%; Test J disease control rating (Septoria tritici; [4]): 71%; Test G disease control rating (Rhizoctonia oryzae; [4]): 0%
Cc1cc(C)c(-c2c(Cl)nc(-n3ccc(C)n3)c(=O)n2CC(C)C)c(C)c1 [compound 258]	0* %	49* %	59* %	0* %	41* %	0* %	0* %	0* %	0* %	0* %	82* %	0* %	–
CCCCn1c(-c2ccc(F)cc2Cl)c(Cl)nc(-n2ccc(C)n2)c1=O [compound 265]	0* %	0* %	100* %	0* %	94* %	90* %	0* %	91* %	95* %	0* %	100* %	50* %	–
CCCCn1c(-c2ccc(F)cc2Cl)c(Cl)nc(-n2cccn2)c1=O [compound 266]	0* %	0* %	100* %	0* %	99* %	99* %	0* %	99* %	99* %	0* %	100* %	90* %	–
CCCCn1c(-c2ccc(F)cc2Cl)c(Cl)nc(N2CCC=N2)c1=O [compound 267]	0* %	0* %	100* %	0* %	68* %	0* %	0* %	0* %	0* %	0* %	60* %	0* %	–
O=c1c(-n2cccn2)nc(Cl)c(-c2c(F)cccc2F)n1CCO [compound 268]	0* %	0* %	0* %	0* %	82* %	0* %	0* %	0* %	0* %	0* %	7* %	0* %	–
O=c1c(-n2cccn2)nc(Cl)c(-c2c(F)cccc2F)n1CCF [compound 269]	0* %	0* %	0* %	0* %	91* %	0* %	0* %	0* %	100* %	0* %	99* %	0* %	–
O=c1c(-n2cccn2)nc(Cl)c(-c2c(F)cccc2F)n1CCBr [compound 270]	0* %	0* %	85* %	0* %	94* %	0* %	0* %	0* %	0* %	24* %	95* %	0* %	–
O=c1c(-n2cccn2)nc(Cl)c(-c2c(F)cccc2F)n1Cc1ccc(F)cc1 [compound 272]	0* %	44* %	100* %	0* %	100* %	95* %	0* %	100* %	99* %	57* %	100* %	59* %	–
O=c1c(-n2cncn2)nc(Cl)c(-c2c(F)cccc2F)n1Cc1ccc(F)cc1 [compound 273]	0* %	0* %	99* %	0* %	86* %	0* %	0* %	0* %	0* %	0* %	92* %	0* %	–
N#Cc1nc(Cl)c(-c2c(F)cccc2F)n(Cc2ccc(F)cc2)c1=O [compound 274]	0* %	0* %	0* %	0* %	91* %	0* %	0* %	71* %	0* %	0* %	45* %	0* %	–
O=c1c(-n2cccn2)nc(Cl)c(-c2c(F)cccc2F)n1Cc1cccc(Cl)c1 [compound 275]	0* %	0* %	100* %	0* %	97* %	47* %	0* %	61* %	99* %	0* %	100* %	0* %	–
